Assay results published in ChEMBL document CHEMBL1201862, “PubChem BioAssay data set” (2004).
Several values for one entry are separate records, joined by “and”; a condition that tells them apart may be missing. Equal values may be shown once.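 Tested at 5 concentrations; 48 h exposure; 96-well plates; endpoints linearly interpolated, else capped at highest concentration. The concentration for 50% growth inhibition is given as GI50.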 Activity calls are given as the source filed them. Cut-off read from the data, not from the text of the source: active = GI50 up to about 1.1 µM and inactive = higher.

How the values were obtained:
Experiment in all cases: growth of human tumour cells (NCI), 48 h
[1] = system: SK-MEL-5
[2] = system: SF-268
[3] = system: HOP-62
[4] = system: RPMI-8226
[5] = system: NCI-H460
[6] = system: A498
[7] = system: HCC 2998
[8] = system: SW-620
[9] = system: LOX IMVI
[10] = system: SK-MEL-2
[11] = system: OVCAR-3
[12] = system: UACC-257
[13] = system: NCI-H226
[14] = system: EKVX
[15] = system: T47D
[16] = system: UACC-62
[17] = system: HCT-15
[18] = system: MDA-MB-435
[19] = system: SN12C
[20] = system: MOLT-4

SMILES	GI50 [1]	GI50 [2]	GI50 [3]	GI50 [4]	GI50 [5]	GI50 [6]	GI50 [7]	GI50 [8]	GI50 [9]	GI50 [10]	GI50 [11]	GI50 [12]	GI50 [13]	GI50 [14]	GI50 [15]	GI50 [16]	GI50 [17]	GI50 [18]	GI50 [19]	GI50 [20]
COC(=O)C12OCC34C(CC5C(C)=CC(=O)C(O)C5(C)C3C(O)C1O)OC(=O)C(OC(=O)CC(C)C)C24 (stereo not given)	0.000624 µM (active)	0.00217 µM (active)	0.00222 µM (active)	0.000371 µM (active)	0.00046 µM (active)	0.002 µM (active)	0.000803 µM (active)	0.002 µM (active)	0.000548 µM (active)	0.00281 µM (active)	0.000906 µM (active)	0.00284 µM (active)	0.00109 µM (active)	0.00313 µM (active)	0.00146 µM (active)	0.00223 µM (active)	0.00288 µM	0.00103 µM (active)	0.00366 µM (active)	–
C[S+](C)C1(c2ccccc2)C(=O)c2ccccc2C1=O	> 38.5 µM (inactive)	60.3 µM (inactive)	> 56.9 µM (inactive)	> 62.1 µM (inactive)	> 55.6 µM (inactive)	73.8 µM (inactive)	17.7 µM (inactive)	> 100 µM (inactive)	38.9 µM (inactive)	> 43 µM (inactive)	> 55.1 µM (inactive)	> 64.9 µM (inactive)	48 µM (inactive)	34 µM (inactive)	29.4 µM (inactive)	> 41 µM (inactive)	> 51.1 µM	42.6 µM (inactive)	> 100 µM (inactive)	> 83.2 µM (inactive)
CCCCNc1c(CN)cnc2cc(Cl)ccc12	15.1 µM (inactive)	23.6 µM (inactive)	14.1 µM (inactive)	16.4 µM (inactive)	13 µM (inactive)	15.4 µM (inactive)	2.73 µM (inactive)	16.3 µM (inactive)	15.4 µM (inactive)	17.8 µM (inactive)	15 µM (inactive)	13 µM (inactive)	16.1 µM (inactive)	3.79 µM (inactive)	19.2 µM (inactive)	15.6 µM (inactive)	17.1 µM	15.6 µM (inactive)	18.4 µM (inactive)	17 µM (inactive)
CO[C@@H]1[C@H](OC(=O)NC(=O)CCl)CC[C@]2(CO2)[C@H]1[C@@]1(C)O[C@@H]1CC=C(C)C [O-CHLOROACETYLCARBAMOYLFUMAGILLOL]	8.83 µM (inactive)	13.6 µM (inactive)	12.9 µM (inactive)	6.93 µM (inactive)	2.04 µM (inactive)	17.2 µM (inactive)	5.81 µM (inactive)	9.53 µM (inactive)	5.05 µM (inactive)	13.6 µM (inactive)	3.49 µM (inactive)	11 µM (inactive)	19 µM (inactive)	14.1 µM (inactive)	12.6 µM (inactive)	12 µM (inactive)	14.1 µM	11.7 µM (inactive)	13.7 µM (inactive)	6.56 µM (inactive)
COc1ccc2c(c1OC)CN1CCc3cc4c(cc3C1C2)OCO4 (stereo not given) [TETRAHYDROBERBERINE]	> 100 µM (inactive)	> 100 µM (inactive)	> 100 µM (inactive)	> 100 µM (inactive)	61 µM (inactive)	> 100 µM (inactive)	> 100 µM (inactive)	> 100 µM (inactive)	> 100 µM (inactive)	> 100 µM (inactive)	> 100 µM (inactive)	> 100 µM (inactive)	> 100 µM (inactive) and 68.7 µM (inactive)	> 100 µM (inactive)	> 100 µM (inactive)	> 100 µM (inactive)	> 100 µM	> 100 µM (inactive)	> 100 µM (inactive)	> 100 µM (inactive)
CC(C)(C)N1Cc2ccccc2/C(=C/Sc2ccccc2)C1=O	6.9 µM (inactive)	2.44 µM (inactive)	17.3 µM (inactive)	5.82 µM (inactive)	14.9 µM (inactive)	20 µM (inactive)	18.2 µM (inactive)	7.21 µM (inactive)	2.64 µM (inactive)	15.2 µM (inactive)	12 µM (inactive)	14.3 µM (inactive)	8.83 µM (inactive)	16.8 µM (inactive)	16.6 µM (inactive)	7.69 µM (inactive)	12.9 µM	7.38 µM (inactive)	8.17 µM (inactive)	3.21 µM (inactive)
CC(C)CC(NC(O)[BH2-][N+](C)(C)C)C(=O)NC(Cc1ccccc1)C(=O)N[C@H]1c2ccsc2/C(=N/O)[C@H]1O (stereo not given in full)	> 100 µM (inactive)	> 100 µM (inactive)	> 100 µM (inactive)	> 100 µM (inactive)	> 100 µM (inactive)	> 100 µM (inactive)	> 100 µM (inactive)	> 100 µM (inactive)	> 100 µM (inactive)	> 100 µM (inactive)	> 100 µM (inactive)	> 100 µM (inactive)	> 100 µM (inactive)	> 100 µM (inactive)	> 100 µM (inactive)	> 100 µM (inactive)	> 100 µM	> 100 µM (inactive)	> 100 µM (inactive)	> 100 µM (inactive)
CC(C)(C)OC(=O)NCCCNC1(c2cc3ccccc3s2)CCCCC1	13.9 µM (inactive)	16.7 µM (inactive)	14.4 µM (inactive)	3.84 µM (inactive)	14.3 µM (inactive)	15.6 µM (inactive)	3.56 µM (inactive)	15.5 µM (inactive)	16.8 µM (inactive)	17.5 µM (inactive)	13.8 µM (inactive)	15.8 µM (inactive)	29 µM (inactive)	14 µM (inactive)	16.7 µM (inactive)	17.4 µM (inactive)	14.9 µM	14.7 µM (inactive)	15.3 µM (inactive)	12.5 µM (inactive)
O=C1NC(=O)C(F)(n2cc(F)c(=O)[nH]c2=O)C(O)N1 (stereo not given)	> 10 µM (inactive)	> 10 µM (inactive)	> 10 µM (inactive)	> 10 µM (inactive)	> 10 µM (inactive)	> 10 µM (inactive)	> 10 µM (inactive)	> 10 µM (inactive)	> 10 µM (inactive)	> 10 µM (inactive)	> 10 µM (inactive)	> 10 µM (inactive)	> 10 µM (inactive)	> 10 µM (inactive)	> 10 µM (inactive)	> 10 µM (inactive)	> 10 µM	> 10 µM (inactive)	> 10 µM (inactive)	> 10 µM (inactive)
O=C1CCC2(CC1CC[S+]([O-])c1ccccc1)OCCO2 (stereo not given)	> 100 µM (inactive)	> 100 µM (inactive)	> 100 µM (inactive)	> 100 µM (inactive)	> 100 µM (inactive)	> 100 µM (inactive)	> 100 µM (inactive)	> 100 µM (inactive)	> 100 µM (inactive)	> 100 µM (inactive)	> 100 µM (inactive)	> 100 µM (inactive)	> 100 µM (inactive)	> 100 µM (inactive)	> 100 µM (inactive)	> 100 µM (inactive)	> 100 µM	> 100 µM (inactive)	–	> 100 µM (inactive)
CC(=O)N(CN1C(=O)CCC1C(=O)O)c1cccc(O)c1 (stereo not given)	> 100 µM (inactive)	> 100 µM (inactive)	> 100 µM (inactive)	> 100 µM (inactive)	> 100 µM (inactive)	> 100 µM (inactive)	> 100 µM (inactive)	> 100 µM (inactive)	> 100 µM (inactive)	> 100 µM (inactive)	> 100 µM (inactive)	> 100 µM (inactive)	> 100 µM (inactive)	> 100 µM (inactive)	> 100 µM (inactive)	> 100 µM (inactive)	> 100 µM	> 100 µM (inactive)	> 100 µM (inactive)	> 100 µM (inactive)
N/N=C1\C(OC(=O)Nc2cccc(Cl)c2)=Nc2ccccc21	11.5 µM (inactive)	12.1 µM (inactive)	2.75 µM (inactive)	2.9 µM (inactive)	6.9 µM (inactive)	11.4 µM (inactive)	5.71 µM (inactive)	9.12 µM (inactive)	7.83 µM (inactive)	10.3 µM (inactive)	2.6 µM (inactive)	13.7 µM (inactive)	15.3 µM (inactive)	4.05 µM (inactive)	2.45 µM (inactive)	7.78 µM (inactive)	6.89 µM	8.57 µM (inactive)	4.95 µM (inactive)	6.49 µM (inactive)
CC(=O)OC/C=C/Cn1ncc(=O)[nH]c1=O	> 100 µM (inactive)	> 100 µM (inactive)	> 100 µM (inactive)	> 100 µM (inactive)	> 100 µM (inactive)	> 100 µM (inactive)	> 100 µM (inactive)	> 100 µM (inactive)	> 100 µM (inactive)	> 100 µM (inactive)	> 100 µM (inactive)	–	> 100 µM (inactive)	> 100 µM (inactive)	> 100 µM (inactive)	–	> 100 µM	> 100 µM (inactive)	> 100 µM (inactive)	> 100 µM (inactive)
CC(=O)N1CCc2c([nH]c3ccc(Br)cc23)C1c1ccccc1 (stereo not given)	2.4 µM (inactive)	> 9.02 µM (inactive)	7.55 µM (inactive)	2.29 µM (inactive)	0.522 µM (active)	> 10 µM (inactive)	9.95 µM (inactive)	2.62 µM (inactive)	2 µM (inactive)	> 10 µM (inactive)	> 10 µM (inactive)	> 10 µM (inactive)	> 10 µM (inactive)	> 10 µM (inactive)	> 10 µM (inactive)	> 7.13 µM (inactive)	0.194 µM	2.69 µM (inactive)	–	0.697 µM (active)
